In ChEMBL document CHEMBL4196008, “Structure activity relationships, multidrug resistance reversal and selectivity of heteroarylphenyl ABCG2 inhibitors” (Eur J Med Chem, 2018):

How the values were obtained:
[1] = biological target: T1, Broad substrate specificity ATP-binding cassette transporter ABCG2 (Homo sapiens, UniProt Q9UNQ0); experiment: Inhibition of C-terminal GFP-fused human ABCG2 expressed in MDCK2 cells up to 10 uM preincubated for 30 mins followed by Hoechst 33342 addition and measured every 60 secs for 120 mins by Hoechst 33342 accumulation assay; type: cell-based; details: 2 h
T1 sequence (Q9UNQ0 whole entry): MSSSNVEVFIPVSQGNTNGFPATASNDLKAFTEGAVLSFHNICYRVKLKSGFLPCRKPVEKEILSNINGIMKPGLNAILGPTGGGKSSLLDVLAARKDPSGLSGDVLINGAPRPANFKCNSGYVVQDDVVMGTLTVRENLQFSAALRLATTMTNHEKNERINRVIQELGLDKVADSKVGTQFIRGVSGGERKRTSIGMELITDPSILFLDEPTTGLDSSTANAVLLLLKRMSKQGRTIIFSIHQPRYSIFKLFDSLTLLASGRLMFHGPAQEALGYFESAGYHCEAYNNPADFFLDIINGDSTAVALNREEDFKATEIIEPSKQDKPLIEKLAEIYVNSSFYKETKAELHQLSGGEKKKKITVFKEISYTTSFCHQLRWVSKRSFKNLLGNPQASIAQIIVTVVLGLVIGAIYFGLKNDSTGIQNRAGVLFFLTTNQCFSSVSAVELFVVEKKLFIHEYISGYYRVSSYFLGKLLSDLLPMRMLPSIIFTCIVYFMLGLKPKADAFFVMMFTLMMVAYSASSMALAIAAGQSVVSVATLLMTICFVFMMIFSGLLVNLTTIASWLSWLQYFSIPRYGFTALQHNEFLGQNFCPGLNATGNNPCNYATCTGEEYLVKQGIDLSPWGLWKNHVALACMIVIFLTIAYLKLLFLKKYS

[2] = biological target: T1, Broad substrate specificity ATP-binding cassette transporter ABCG2
Description: Inhibition of C-terminal GFP-fused human ABCG2 expressed in MDCK2 cells preincubated for 30 mins followed by Hoechst 33342 addition and measured every 60 secs for 120 mins by Hoechst 33342 accumulation assay

[3] = test system: ABCG2; experiment: Therapeutic index, ratio of GI50 for MDCK2 cells expressing C-terminal GFP-fused human ABCG2 to IC50 for C-terminal GFP-fused human ABCG2 expressed in MDCK2 BCRP cells; type: toxicity, cell-based; details: dog, read-out: TI
[4] = biological target: T2, ABCG2 (Homo sapiens, UniProt Q9UNQ0); experiment: Inhibition of C-terminal GFP-fused human ABCG2 expressed in MDCK2 cells up to 10 uM preincubated for 30 mins followed by Hoechst 33342 addition and measured every 60 secs for 120 mins by Hoechst 33342 accumulation assay relative to XR9577; type: cell-based; details: MDCK2 cells expressing C-terminal GFP-fused human ABCG2, probe Hoechst 33342, read-out: Imax
T2 sequence (Q9UNQ0 whole entry): T1 sequence (Q9UNQ0 whole entry)

[5] = Resistance factor, ratio of SN-38 GI50 for MDCK2 cells expressing C-terminal GFP-fused human ABCG2 in presence of 0.0316 uM test compound to SN-38 GI50 for MDCK2 cells in absence of test compound; type: functional
[6] = Resistance factor, ratio of SN-38 GI50 for MDCK2 cells expressing C-terminal GFP-fused human ABCG2 in presence of 0.100 uM test compound to SN-38 GI50 for MDCK2 cells in absence of test compound; type: functional
[7] = Resistance factor, ratio of SN-38 GI50 for MDCK2 cells expressing C-terminal GFP-fused human ABCG2 in presence of 0.0100 uM test compound to SN-38 GI50 for MDCK2 cells in absence of test compound; type: functional
[8] = Growth inhibition of MDCK2 cells expressing C-terminal GFP-fused human ABCG2 after 72 hrs by MTT assay; type: ADME, cell-based, Canis lupus familiaris, MDCK-II; details: dog
[9] = Growth inhibition of MDCK2 cells after 72 hrs by MTT assay; type: cell-based, Canis lupus familiaris, MDCK-II; details: dog
[10] = Resistance factor, ratio of SN-38 GI50 for MDCK2 cells expressing C-terminal GFP-fused human ABCG2 in presence of 0.316 uM test compound to SN-38 GI50 for MDCK2 cells in absence of test compound; type: functional
[11] = biological target: ATP-dependent translocase ABCB1 (Homo sapiens, UniProt P08183); experiment: Inhibition of ABCB1 in human A2780adr cells assessed as reduction in calcein AM levels preincubated for 30 mins followed by calcein AM addition measured immediately at 60 sec time interval for 60 mins by fluorescence assay; type: cell-based
Chain of ATP-dependent translocase ABCB1 (P08183 whole entry, the tested form may be a part): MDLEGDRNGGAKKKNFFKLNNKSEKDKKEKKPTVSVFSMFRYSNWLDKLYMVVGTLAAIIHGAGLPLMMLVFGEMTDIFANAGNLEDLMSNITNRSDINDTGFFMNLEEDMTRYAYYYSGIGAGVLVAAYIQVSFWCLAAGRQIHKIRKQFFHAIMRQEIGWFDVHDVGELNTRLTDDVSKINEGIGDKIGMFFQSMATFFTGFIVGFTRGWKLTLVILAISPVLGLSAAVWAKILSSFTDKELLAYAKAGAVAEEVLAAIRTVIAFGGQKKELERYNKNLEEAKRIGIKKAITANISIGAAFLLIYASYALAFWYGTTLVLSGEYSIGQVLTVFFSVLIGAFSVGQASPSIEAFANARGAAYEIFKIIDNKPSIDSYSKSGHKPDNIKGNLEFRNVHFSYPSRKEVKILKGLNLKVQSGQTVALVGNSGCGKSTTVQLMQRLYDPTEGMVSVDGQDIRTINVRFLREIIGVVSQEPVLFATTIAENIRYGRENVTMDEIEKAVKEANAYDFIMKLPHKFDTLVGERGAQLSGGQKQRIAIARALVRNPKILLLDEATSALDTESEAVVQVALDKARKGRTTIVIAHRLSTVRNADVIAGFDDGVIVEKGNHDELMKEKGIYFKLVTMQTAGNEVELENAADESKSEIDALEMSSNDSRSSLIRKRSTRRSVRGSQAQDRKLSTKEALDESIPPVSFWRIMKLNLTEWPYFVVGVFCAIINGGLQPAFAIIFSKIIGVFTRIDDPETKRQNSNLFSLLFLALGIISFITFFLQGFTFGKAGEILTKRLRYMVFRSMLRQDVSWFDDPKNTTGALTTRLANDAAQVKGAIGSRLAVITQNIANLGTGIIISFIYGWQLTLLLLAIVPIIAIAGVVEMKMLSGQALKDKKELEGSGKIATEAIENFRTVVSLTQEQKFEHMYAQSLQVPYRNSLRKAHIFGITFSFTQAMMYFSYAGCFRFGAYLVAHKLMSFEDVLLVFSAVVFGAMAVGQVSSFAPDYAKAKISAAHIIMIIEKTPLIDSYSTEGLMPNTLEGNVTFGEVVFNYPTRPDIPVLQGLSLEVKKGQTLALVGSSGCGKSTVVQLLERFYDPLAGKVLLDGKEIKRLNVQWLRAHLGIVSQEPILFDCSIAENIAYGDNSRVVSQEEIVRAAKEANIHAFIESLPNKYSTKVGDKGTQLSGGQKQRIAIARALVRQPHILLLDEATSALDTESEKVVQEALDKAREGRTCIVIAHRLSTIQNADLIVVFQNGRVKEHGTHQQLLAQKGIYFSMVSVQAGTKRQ

[12] = Resistance factor, ratio of SN-38 GI50 for MDCK2 cells expressing C-terminal GFP-fused human ABCG2 in presence of 1 uM test compound to SN-38 GI50 for MDCK2 cells in absence of test compound; type: functional
[13] = biological target: ABCB1 (Homo sapiens, UniProt P08183); experiment: Inhibition of ABCB1 in human A2780adr cells assessed as reduction in calcein AM levels at 10 uM preincubated for 30 mins followed by calcein AM addition measured immediately at 60 sec time interval for 60 mins by fluorescence assay relative to control; type: cell-based; details: probe calcein AM
Chain of ABCB1 (P08183 whole entry): as the sequence (P08183 whole entry, the tested form may be a part) above

COc1ccc(C(=O)Nc2ccccc2-c2nn[nH]n2)cc1
inhibition (INH) [1]: Not Active

O=C(Nc1ccccc1-c1nnc(-c2ccccc2)o1)c1ccccc1
IC50 [2]: 112 nM | selectivity ratio [3]: 658 | Emax at 2 h [4]: 101% | RatioGI50 [5]: 2.61 | RatioGI50 [6]: 1.52 | RatioGI50 [7]: 5.51 | GI50 at 72 h [8]: 73700 nM | GI50 at 72 h [9]: 60800 nM | RatioGI50 [10]: 1.49

COc1ccc(-n2nnc(-c3ccccc3NC(=O)c3ccc(C(F)(F)F)cc3)n2)cc1
inhibition (INH) [1]: Not Active

COc1ccc(C(=O)Nc2ccccc2-c2nnn(-c3ccc(OC)cc3)n2)cc1
inhibition (INH) [1]: Not Active

COc1ccc(-n2nnc(-c3ccccc3NC(=O)c3cccc4ccccc34)n2)cc1
IC50 [2]: 267 nM | Emax at 2 h [4]: 78%

COc1ccc(C(=O)Nc2ccccc2-c2nnn(-c3ccc(OC)nc3)n2)cc1
IC50 [11]: 8550 nM | IC50 [2]: 61.6 nM | selectivity ratio [3]: 1270 | Emax at 2 h [4]: 103% | RatioGI50 [5]: 2.64 | RatioGI50 [6]: 1.1 | RatioGI50 [7]: 4.49 | GI50 at 72 h [8]: 78000 nM | GI50 at 72 h [9]: 80100 nM | RatioGI50 [10]: 1.04

O=C(Nc1ccccc1-n1cc(-c2ccccc2)nn1)c1ccccc1
IC50 [11]: 21200 nM | IC50 [2]: 15300 nM | selectivity ratio [3]: 33.1 | RatioGI50 [12]: 1.63 | Emax at 2 h [4]: 100% | RatioGI50 [5]: 5.37 | RatioGI50 [6]: 3.59 | GI50 at 72 h [8]: 506000 nM | GI50 at 72 h [9]: 452000 nM | RatioGI50 [10]: 2.38

COc1ccc(-n2nnc(-c3ccccc3NC(=O)c3cnc4ccccc4c3)n2)cc1
IC50 [2]: 228 nM | Emax at 2 h [4]: 82%

COc1ccc(C(=O)Nc2ccccc2-n2cc(-c3ccc(OC)cc3)nn2)cc1
IC50 [2]: 2360 nM | Emax at 2 h [4]: 100%

O=C(Nc1ccccc1-c1nnn(-c2ccccc2)n1)c1ccc2c(c1)OCO2
IC50 [2]: 259 nM | Emax at 2 h [4]: 123%

COc1ccc(-n2nnc(-c3ccc(NC(=O)c4ccc(C(F)(F)F)cc4)cc3)n2)cc1
IC50 [2]: 39800 nM | Emax at 2 h [4]: 100%

O=C(Nc1ccccc1-c1nnn(-c2ccccc2)n1)c1ccc2c(c1)OCCO2
IC50 [2]: 190 nM | Emax at 2 h [4]: 106%

COc1ccc(-n2nnc(-c3cc(OC)ccc3NC(=O)c3ccc([N+](=O)[O-])cc3)n2)cc1
IC50 [2]: 129 nM | Emax at 2 h [4]: 50%

COc1ccc(-n2nnc(-c3ccccc3NC(=O)C3CCCCC3)n2)cc1
IC50 [2]: 565 nM | Emax at 2 h [4]: 95%

COc1ccc(-n2nnc(-c3cc(OC)ccc3NC(=O)c3ccc(C(F)(F)F)cc3)n2)cc1
IC50 [2]: 77.4 nM | Emax at 2 h [4]: 96%

c1ccc(-c2ccccc2-c2nnn(-c3ccccc3)n2)cc1
IC50 [2]: 8340 nM | Emax at 2 h [4]: 100%

COc1ccc(-n2nnc(-c3ccccc3NC(=O)c3ccccc3)n2)cn1
IC50 [2]: 102 nM | Emax at 2 h [4]: 120%

O=C(Nc1ccccc1-c1nnn(-c2ccccc2)n1)c1ccncc1
IC50 [2]: 287 nM | Emax at 2 h [4]: 97%

O=C(Nc1ccccc1-c1nnn(-c2ccccc2)n1)c1cnc2ccccc2c1
IC50 [2]: 176 nM | Emax at 2 h [4]: 51%

O=C(Nc1ccccc1-c1nnn(-c2ccccc2)n1)C12CC3CC(CC(C3)C1)C2
IC50 [11]: 11000 nM | IC50 [2]: 1060 nM | Emax at 2 h [4]: 99% | inhibition at 1 h, 10 µM [13]: 51%

O=C(Nc1ccccc1-c1nn[nH]n1)c1ccccc1
inhibition (INH) [1]: Not Active

CC(=O)Nc1ccccc1-c1nnn(-c2ccccc2)n1
IC50 [2]: 6910 nM | Emax at 2 h [4]: 100%

O=C(Nc1ccccc1-c1nnn(-c2ccccc2)n1)c1ccccn1
IC50 [11]: 5910 nM | IC50 [2]: 733 nM | Emax at 2 h [4]: 99%

COc1ccc(-c2nnc(-c3ccccc3NC(=O)c3ccc(C(F)(F)F)cc3)o2)cc1
IC50 [2]: 90 nM | Emax at 2 h [4]: 47%

COc1ccc(-c2cn(-c3ccccc3NC(=O)c3ccc(C(F)(F)F)cc3)nn2)cc1
IC50 [2]: 766 nM | Emax at 2 h [4]: 118%

O=C(Nc1ccccc1-c1nnn(-c2ccccc2)n1)c1cccnc1
IC50 [2]: 445 nM | Emax at 2 h [4]: 81%

COc1ccc(-n2nnc(-c3ccccc3NS(=O)(=O)c3ccc(OC)cc3)n2)cc1
IC50 [2]: 7670 nM | Emax at 2 h [4]: 100%

O=C(Nc1ccccc1-c1nnn(-c2ccccc2)n1)c1cccc2ccccc12
IC50 [2]: 430 nM | Emax at 2 h [4]: 85%

O=C(Nc1ccccc1-c1nnn(-c2ccccc2)n1)C1CCCCC1
IC50 [2]: 287 nM | Emax at 2 h [4]: 97%

O=C(Nc1ccccc1-c1nnn(-c2ccccc2)n1)c1cccs1
IC50 [2]: 270 nM | Emax at 2 h [4]: 106%

COc1ccc(-n2nnc(-c3cccc(NC(=O)c4ccc(C(F)(F)F)cc4)c3)n2)cc1
IC50 [2]: 18500 nM | Emax at 2 h [4]: 100%

COc1ccc(-n2nnc(-c3ccccc3NC(=O)c3cccs3)n2)cc1
IC50 [2]: 351 nM | Emax at 2 h [4]: 90%

COc1ccc(C(=O)Nc2ccccc2-c2nnc(-c3ccc(OC)cc3)o2)cc1
IC50 [2]: 438 nM | selectivity ratio [3]: 836 | Emax at 2 h [4]: 124% | RatioGI50 [5]: 5.07 | RatioGI50 [6]: 2.17 | RatioGI50 [7]: 6.61 | GI50 at 72 h [8]: 404000 nM | GI50 at 72 h [9]: 487000 nM | RatioGI50 [10]: 1.29

COc1ccc(-n2nnc(-c3ccccc3NC(=O)c3ccc(C(F)(F)F)cc3)n2)cn1
IC50 [2]: 130 nM | Emax at 2 h [4]: 95%

COc1ccc(-n2nnc(-c3ccccc3NC(C)=O)n2)cc1
IC50 [2]: 3230 nM | Emax at 2 h [4]: 100%

COc1ccc(-n2nnc(-c3ccccc3-n3nnc(-c4ccc(C(F)(F)F)cc4)n3)n2)cc1
IC50 [2]: 15800 nM | Emax at 2 h [4]: 100%
